Measurements published in the OligoGym collection.
Where “and” joins values, the source holds several entries; their conditions need not be identical. Identical values can stand only once. After the bases stand the sugars from the 5' end (letter, count) and the backbone: PS all phosphorothioate, else s phosphorothioate and o phosphodiester by linkage. Methylation of C is not given here. e = 2'-O-(2-methoxyethyl) (MOE); l = locked nucleic acid (LNA); k = constrained ethyl (cEt); d = 2'-deoxy (DNA)

What was measured:
[1] = molecular target: ANGPTL2; details: ASO
[2] = molecular target: KRAS; details: ASO

Row | Sequence | target mRNA inhibition ([1]; 5 µM) | target mRNA inhibition ([1]; 25 µM) | target mRNA inhibition ([2]; A431, 2 µM) | further results
1 | AAGAAGTTAACAGAGCCATC (sugars l1 d15 l4, PS) | 42.1% | 45.8% |  | 
2 | AAGAGAGAAGGCAGTGAGAG (sugars l2 d16 l2, PS) | 24.8% | 10.9% |  | 
3 | AAGTTGATAGTTTATCTC (sugars l4 d11 l3, PS) | 91.6% | 91.4% |  | 
4 | ACCCTCCATCCTTCACC (sugars l2 d13 l2, PS) | 34.7% | 54.5% |  | 
5 | ACCCTCCATCCTTCACC (sugars l3 d12 l2, PS) | 38.9% | 44% |  | 
6 | ACCCTCCATCCTTCACC (sugars l4 d11 l2, PS) | 36.5% | 52.7% |  | 
7 | AGTAGCCTTCTGACCAA (sugars l1 d13 l3, PS) | 48.5% | 56.5% |  | 
8 | AGTTGATAGTTTATCTCCT (sugars l2 d15 l2, PS) | 59.7% | 67.4% |  | 
9 | ATAGTGGGCAGAGGGGG (sugars l1 d14 l2, PS) | 21.6% | 13.4% |  | 
10 | ATCAATAGGCAGACAGGC (sugars l2 d14 l2, PS) | 50.1% | 65.4% |  | 
11 | ATGGTGGTTATTCTTTGTGA (sugars l1 d17 l2, PS) | 33% | 35.7% |  | 
12 | ATTGTGGGTTGGAGGGC (sugars l1 d14 l2, PS) | 30.3% | 18.7% |  | 
13 | ATTTTGAGATTCCCCCAAA (sugars l1 d14 l4, PS) | 7.37% | -8.2% |  | 
14 | CAAAGGCATTTCAGTTCC (sugars l1 d14 l3, PS) | 56.8% | 70.4% |  | 
15 | CAGCCAGTAAATGTTCTCCA (sugars l1 d17 l2, PS) | 42.8% | 38% |  | 
16 | CAGGCCAACACTAACTC (sugars l1 d12 l4, PS) | 66.9% | 82.5% |  | 
17 | CAGGTCCTTGTACTTGC (sugars l2 d13 l2, PS) | 49.2% | 62% |  | 
18 | CATTTTGAGATTCCCCCA (sugars l1 d15 l2, PS) | 22.1% | 21.1% |  | 
19 | CCAACACTAACTCGGC (sugars l2 d12 l2, PS) | 36% | 54.3% |  | 
20 | CCACCCATTTAGCCTTC (sugars l1 d14 l2, PS) | 46.7% | 42.7% |  | 
21 | CCAGAGCTAATCAGTGG (sugars l2 d13 l2, PS) | 39.4% | 48.8% |  | 
22 | CCATTTTGAGATTCCCCCAA (sugars l3 d15 l2, PS) | 44.4% | 43.9% |  | 

Row | Sequence | target mRNA inhibition ([1]; 5 µM) | target mRNA inhibition ([1]; 25 µM) | target mRNA inhibition ([2]; A431, 2 µM) | further results
23 | CCCACAATGAGACTGGT (sugars l2 d13 l2, PS) | 30.2% | 30.4% |  | 
24 | CTAGACATACCATCTA (sugars l3 d10 l3, PS) | 34.9% | 40% |  | 
25 | CTAGTGTGCTCTGGAGC (sugars l1 d14 l2, PS) | 36.6% | 65.7% |  | 
26 | CTCCAAATTAAATCCG (sugars l4 d9 l3, PS) | 22.4% | 32.3% |  | 
27 | CTGGAAAGAAGGGGCTGTG (sugars l1 d16 l2, PS) | 38.8% | 30.4% |  | 
28 | CTGGGTTATATTCTCTT (sugars l2 d12 l3, PS) | 39.4% | 43.5% |  | 
29 | CTGGTTGATGATGCGGTT (sugars l1 d15 l2, PS) | 56% | 66% |  | 
30 | GAAGAAAAGAGCACATGG (sugars l3 d11 l4, PS) | 33.2% | 9.98% |  | 
31 | GCCAACACTAACTCGGC (sugars l1 d14 l2, PS) | 30.6% | 31.4% |  | 
32 | GCTCCGGTAATGGCCC (sugars l1 d12 l3, PS) | 25.9% | 29.2% |  | 
33 | GCTCTCATAATCCTAC (sugars l2 d11 l3, PS) | 59.2% | 65.4% |  | 
34 | GGTGTAACATAGGTTA (sugars k3 d10 k3, PS) |  |  | 55% and 50% | target mRNA inhibition ([2]; A431, 0.185 µM): 7%; target mRNA inhibition ([2]; A431, 0.556 µM): 29%; target mRNA inhibition ([2]; A431, 1.667 µM): 47%; target mRNA inhibition ([2]; A431, 5 µM): 67%
35 | GTAAAAGCTAACAGTC (sugars k3 d10 k3, PS) |  |  | 21% | 
36 | GTCATAGAAACTACCCC (sugars l1 d13 l3, PS) | 29.1% | 68.1% |  | 
37 | GTCCAGTGATACTTTC (sugars k3 d9 k3 e1, PS) |  |  | 48% | 
38 | GTCCAGTGATACTTTC (sugars kddddddddddkekek, PS) |  |  | 36% | 
39 | GTCCAGTGATACTTTC (sugars kkddddddddkekekk, PS) |  |  | 22% | 
40 | GTGCAATGGTGACAAC (sugars k3 d10 k3, PS) |  |  | 38% | 
41 | GTGGGCAAGAGGGATGC (sugars l1 d14 l2, PS) | 35% | 32.2% |  | 
42 | GTGTGACTCAGTTAAA (sugars kddddddddddkekek, PS) |  |  | 30% | 
43 | GTGTGACTCAGTTAAA (sugars kdddddddddkekeke, PS) |  |  | 25% | 
44 | GTGTTTATGCAATGTT (sugars kddddddddddkekek, PS) |  |  | 53% | 

Row | Sequence | target mRNA inhibition ([1]; 5 µM) | target mRNA inhibition ([1]; 25 µM) | target mRNA inhibition ([2]; A431, 2 µM) | further results
45 | GTGTTTATGCAATGTT (sugars kdddddddddkekeke, PS) |  |  | 41% | 
46 | GTGTTTATGCAATGTT (sugars kkkddddddddkdkdk, PS) |  |  |  | target mRNA inhibition ([2]; A431, 0.125 µM): 70% and 58%; target mRNA inhibition ([2]; A431, 0.185 µM): 27%; target mRNA inhibition ([2]; A431, 0.556 µM): 47%; target mRNA inhibition ([2]; A431, 1.667 µM): 73%; target mRNA inhibition ([2]; A431, 5 µM): 81%
47 | GTTATGCCCATTTCTAGG (sugars l1 d15 l2, PS) | 47.7% | 58.8% |  | 
48 | GTTCGTCAGCCAGTAA (sugars l2 d11 l3, PS) | 46.5% | 75.5% |  | 
49 | GTTGATAGTTTATCTCC (sugars l3 d12 l2, PS) | 87.4% | 88.8% |  | 
50 | GTTTATGCAATGTTAA (sugars kddddddddddkekek, PS) |  |  | 37% | 
51 | GTTTATGCAATGTTAA (sugars kkddddddddkekekk, PS) |  |  | 57% | target mRNA inhibition ([2]; A431, 0.185 µM): 27%; target mRNA inhibition ([2]; A431, 0.556 µM): 46%; target mRNA inhibition ([2]; A431, 1.667 µM): 45%; target mRNA inhibition ([2]; A431, 5 µM): 79%
52 | TAATCCATTTATGTGA (sugars k3 d10 k3, PS) |  |  | 31% | 
53 | TAATGTCACAAGCAGA (sugars k3 d10 k3, PS) |  |  | 52% | 
54 | TAGGAGTCTTTATAGT (sugars k3 d10 k3, PS) |  |  | 41% | 
55 | TAGTGATTAGGTCAAA (sugars kkdddddddddkdkdk, PS) |  |  | 25% | 
56 | TATAATAATCCCCATT (sugars k3 d10 k3, PS) |  |  | 7% | 
57 | TCAAAGTTCACATAAA (sugars k3 d10 k3, PS) |  |  | 19% | 
58 | TCATTGTTTAAAAAAA (sugars k3 d10 k3, PS) |  |  | 0% | 
59 | TCCAGTGATACTTTCA (sugars kkddddddddddkeke, PS) |  |  | 39% | 
60 | TCCATTTATGTGACTA (sugars kddddddddddkekek, PS) |  |  | 38% | 
61 | TCCATTTATGTGACTA (sugars kkkddddddddkdkdk, PS) |  |  | 16% | 
62 | TCCATTTATGTGACTA (sugars kkkddddddddkekek, PS) |  |  | 0% | 
63 | TCTGAATTAGTCTCCA (sugars k3 d10 k3, PS) |  |  | 62% and 50% | target mRNA inhibition ([2]; A431, 0.185 µM): 0%; target mRNA inhibition ([2]; A431, 0.556 µM): 26%; target mRNA inhibition ([2]; A431, 1.667 µM): 48%; target mRNA inhibition ([2]; A431, 5 µM): 68%
64 | TCTTGTTGAGCTATCC (sugars k3 d10 k3, PS) |  |  | 56% | target mRNA inhibition ([2]; A431, 0.185 µM): 28% and 3%; target mRNA inhibition ([2]; A431, 0.556 µM): 38% and 29%; target mRNA inhibition ([2]; A431, 1.667 µM): 61% and 40%; target mRNA inhibition ([2]; A431, 5 µM): 82% and 64%
65 | TCTTTTAATGTCACAA (sugars k3 d10 k3, PS) |  |  | 46% | 
66 | TGAAAAGTGTTTATGC (sugars k3 d10 k3, PS) |  |  | 40% | 

Row | Sequence | target mRNA inhibition ([1]; 5 µM) | target mRNA inhibition ([1]; 25 µM) | target mRNA inhibition ([2]; A431, 2 µM) | further results
67 | TGATTTGTCAGCAGGA (sugars kkkddddddddkekek, PS) |  |  | 41% | 
68 | TGCAATGTTAATTTAA (sugars k3 d10 k3, PS) |  |  | 13% | 
69 | TGCTATAATAATCCCC (sugars k3 d10 k3, PS) |  |  | 43% | 
70 | TGCTGTGAAACTCTCT (sugars kkddddddddddkeke, PS) |  |  | 30% | 
71 | TGCTGTGAAACTCTCT (sugars kkdddddddddkekek, PS) |  |  | 0% | 
72 | TGCTGTGAAACTCTCT (sugars kkddddddddkekekk, PS) |  |  | 5% | 
73 | TGTGCAATGGTGACAA (sugars k3 d10 k3, PS) |  |  | 28% | 
74 | TGTTTAAAAAAAAAAT (sugars k3 d10 k3, PS) |  |  | 2% | 
75 | TGTTTATGCAATGTTA (sugars k3 d10 k3, PS) |  |  |  | target mRNA inhibition ([2]; A431, 0.125 µM): 49% and 53%; target mRNA inhibition ([2]; A431, 0.185 µM): 21% and 0%; target mRNA inhibition ([2]; A431, 0.556 µM): 40% and 27%; target mRNA inhibition ([2]; A431, 1.667 µM): 53%; target mRNA inhibition ([2]; A431, 5 µM): 79% and 68%; target mRNA inhibition ([2]; NCI-H460, 0.037 µM): 41%
76 | TGTTTATGCAATGTTA (sugars kkddddddddddkeke, PS) |  |  | 23% | 
77 | TGTTTATGCAATGTTA (sugars kkdddddddddkdkdk, PS) |  |  | 46% | 
78 | TTAAAAAAAAAATTAA (sugars k3 d10 k3, PS) |  |  | 0% | 
79 | TTAATTACTTATGCAG (sugars k3 d10 k3, PS) |  |  | 32% | 
80 | TTACTTATGCAGAGAA (sugars k3 d10 k3, PS) |  |  | 46% | 
81 | TTAGTGATTAGGTCAA (sugars k3 d9 k3 e1, PS) |  |  | 53% | 
82 | TTATGCAATGTTAATT (sugars k3 d10 k3, PS) |  |  | 3% | 
83 | TTGATTTGTCAGCAGG (sugars kkdddddddddkekek, PS) |  |  | 23% and 22% | 
84 | TTGTATCTTGTTGAGC (sugars k3 d10 k3, PS) |  |  | 50% | 
85 | TTGTGCAATGGTGACA (sugars k3 d10 k3, PS) |  |  | 29% | 
